Results from US8309558B2, “Compounds for the treatment of hepatitis C” (Bristol-Myers Squibb Company, priority 2008, dated 2012).
Read-outs that look alike come from different tables or passages of the source.

What was measured:
[1] = tested on: HCV replicon cells; assay: HCV replicon FRET / luciferase assay (96-well plates); format: cell-based; details: Hepatitis C virus, HCV replicon, read-out: EC50
How it was run: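 Replicon cells + titrated cpds, 37 °C CO2. Alamar blue for cytotoxicity, PBS rinse, then lysis reagent w/ 20 μM FRET peptide (EDANS/DABCYL), 150 mM NaCl; kinetic read ex340/em490, 20 cycles. Alt: Dual-Glo luciferase. EC50 = 50% drop in FRET/luciferase signal after background subtraction.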

[2] = target: T1, HCV NS5B RdRp genotype 1b (Hepatitis C virus genotype 1b, UniProt Q9WMX2); assay: Standard HCV NS5B RdRp enzyme assay; format: biochemical; details: HCV NS5B RdRp genotype 1b, read-out: IC50
T1 construct: The protein was expressed with an 18 amino acid C-terminal truncation to enhance the solubility; made in house; host or cells: E. coli BL21(DE3), pET21a vector
T1 sequence (Q9WMX2 2420-2992): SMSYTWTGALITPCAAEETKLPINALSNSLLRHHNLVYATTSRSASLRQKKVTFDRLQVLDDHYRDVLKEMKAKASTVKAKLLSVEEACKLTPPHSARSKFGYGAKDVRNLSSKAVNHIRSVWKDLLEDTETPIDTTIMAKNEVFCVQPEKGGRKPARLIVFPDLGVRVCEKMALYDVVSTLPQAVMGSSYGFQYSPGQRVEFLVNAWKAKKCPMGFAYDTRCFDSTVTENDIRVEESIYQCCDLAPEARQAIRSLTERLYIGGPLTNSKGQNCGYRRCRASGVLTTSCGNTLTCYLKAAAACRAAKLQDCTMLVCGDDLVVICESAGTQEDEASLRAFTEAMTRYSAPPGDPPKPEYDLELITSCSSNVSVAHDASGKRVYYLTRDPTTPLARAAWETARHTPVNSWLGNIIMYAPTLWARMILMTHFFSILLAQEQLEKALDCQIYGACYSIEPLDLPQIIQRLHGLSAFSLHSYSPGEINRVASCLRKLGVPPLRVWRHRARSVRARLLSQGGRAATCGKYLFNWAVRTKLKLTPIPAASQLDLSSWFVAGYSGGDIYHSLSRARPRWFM
Method: HCV NS5B RdRp cloning, expression, and purification. The cDNA encoding the NS5B protein of HCV, genotype 1b, was cloned into the pET21a expression vector. The protein was expressed with an 18 amino acid C-terminal truncation to enhance the solubility. The E. coli competent cell line BL21(DE3) was used for expression of the protein. Cultures were grown at 37° C. for ˜4 hours until the cultures reached an optical density of 2.0 at 600 nm. The cultures were cooled to 20° C. and induced with 1 mM IPTG. Fresh ampicillin was added to a final concentration of 50 μg/ml and the cells were grown overnight at 20° C.
Cell pellets (3 L) were lysed for purification to yield 15-24 mgs of purified NS5B. The lysis buffer consisted of 20 mM Tris-HCl, pH 7.4, 500 mM NaCl, 0.5% triton X-100, 1 mM DTT, 1 mM EDTA, 20% glycerol, 0.5 mg/ml lysozyme, 10 mM MgCl2, 15 ug/ml deoxyribonuclease I, and Complete TM protease inhibitor tablets (Roche). After addition of the lysis buffer, frozen cell pellets were resuspended using a tissue homogenizer. To reduce the viscosity of the sample, aliquots of the lysate were sonicated on ice using a microtip attached to a Branson sonicator. The sonicated lysate was centrifuged at 100,000×g for 1 hr at 4° C. and filtered through a 0.2 μm filter unit (Corning).
The protein was purified using three sequential chromatography steps: Heparin sepharose CL-6B, polyU sepharose 4B, and Hitrap SP sepharose (Pharmacia). The chromatography buffers were identical to the lysis buffer but contained no lysozyme, deoxyribonuclease I, MgC12 or protease inhibitor and the NaCl concentration of the buffer was adjusted according to the requirements for charging the protein onto the column. Each column was eluted with a NaCl gradient which varied in length from 5-50 column volumes depending on the column type. After the final chromatography step, the resulting purity of the enzyme is >90% based on SDS-PAGE analysis. The enzyme was aliquoted and stored at −80° C.
Standard HCV NS5B RdRp enzyme assay. HCV RdRp genotype 1b assays were run in a final volume of 60 μl in 96 well plates (Costar 3912). The assay buffer composed of 20 mM Hepes, pH 7.5, 2.5 mM KCl, 2.5 mM MgCl2, 1 mM DTT, 1.6 U RNAse inhibitor (Promega N2515), 0.1 mg/ml BSA (Promega R3961), and 2% glycerol. All compounds were serially diluted (3-fold) in DMSO and diluted further in water such that the final concentration of DMSO in the assay was 2%. HCV RdRp genotype 1b enzyme was used at a final concentration of 28 nM. A polyA template was used at 6 nM, and a biotinylated oligo-dT12 primer was used at 180 nM final concentration. Template was obtained commercially (Amersham 27-4110). Biotinylated primer was prepared by Sigma Genosys. 3H-UTP was used at 0.6 μCi (0.29 μM total UTP). Reactions were initiated by the addition of enzyme, incubated at 30° C. for 60 min, and stopped by adding 25 μl of 50 mM EDTA containing SPA beads (4 μg/μl, Amersham RPNQ 0007). Plates were read on a Packard Top Count NXT after >1 hr incubation at room temperature.
IC50 values for compounds were determined using seven different [I]. IC50 values were calculated from the inhibition using the formula y=A+((B−A)/(1+((C/x)^D))).

[3] = untitled table after Table 1b, values without asterisk

| SMILES | EC50 ([1]; Table 1a) [nM] | IC50 ([2]; Table 1a) [nM] | EC50 ([1]; Table 1b) [nM] | IC50 ([2]; Table 1b) [nM] | also measured |
| --- | --- | --- | --- | --- | --- |
| CNC(=O)c1c(-c2ccc(F)cc2)oc2ccc(-c3cccc(C(=O)NC(CC(C)C)C(N)=O)c3)cc12 (stereo not drawn) | 250 to 1000 | 250 to 1000 | – | – | – |
| CNC(=O)c1c(-c2ccc(F)cc2)oc2ccc(-c3cccc(C(=O)NC4CCCC4)c3)cc12 | < 250 | < 250 | – | – | – |
| CNC(=O)c1c(-c2ccc(F)cc2)oc2ccc(-c3cccc(C(=O)Nc4n[nH]cc4C(N)=O)c3)cc12 | > 10000 | 1000 to 10000 | – | – | – |
| CNC(=O)c1c(-c2ccc(F)cc2)oc2ccc(-c3cccc(C(=O)OC(C)(C)C)c3)cc12 | 1000 to 10000 | 1000 to 10000 | – | – | – |
| CNC(=O)c1c(-c2ccc(F)cc2)oc2ccc(-c3cc(OCC#N)cc(C(=O)NCC(C)C)c3)cc12 | – | – | < 250 | < 250 | – |
| CNC(=O)c1c(-c2ccc(F)cc2)oc2ccc(-c3ccc(-c4ccc5cc[nH]c5c4)c(C(=O)NCC(C)C)c3)cc12 | – | – | < 250 | 250 to 1000 | – |
| CNC(=O)c1c(-c2ccc(F)cc2)oc2ccc(-c3cccc(C(=O)NC(C)c4ccc(F)cc4)c3)cc12 (stereo not drawn) | < 250 | < 250 | – | – | – |
| CNC(=O)c1c(-c2ccc(F)cc2)oc2ccc(-c3cc(C(=O)NCC(C)C)ccc3OCCN3CCCC3)cc12 | – | – | < 250 | < 250 | – |
| CNC(=O)c1c(-c2ccc(F)cc2)oc2ccc(-c3cc(C(=O)NC4(c5ncc(C)s5)CC4)ccc3C)cc12 [drawing 708] | – | – | – | – | EC50 ([1]; 24 h, second table titled Table 1d (numbers)): 1.9 nM; IC50 ([2]; second table titled Table 1d (numbers)): < 17 nM |
| CNC(=O)c1c(-c2ccc(F)cc2)oc2ccc(-c3cccc(C(=O)N[C@@H](C)c4ccc(F)cc4)c3)cc12 | < 250 | < 250 | – | – | – |
| CNC(=O)c1c(-c2ccc(F)cc2)oc2ccc(-c3ccc(OC4CCCCO4)cc3)cc12 (stereo not drawn) | 1000 to 10000 | > 10000 | – | – | – |
| CNC(=O)c1c(-c2ccc(F)cc2)oc2ccc(-c3cccc(C(=O)NC4(c5ccc(Cl)cc5)CC4)c3)cc12 | – | – | < 250 | < 250 | – |
| CNC(=O)c1c(-c2ccc(F)cc2)oc2ccc(-c3ccc(C(=O)NCCc4ccccc4Cl)cc3)cc12 | > 10000 | > 10000 | – | – | – |
| CCOC(=O)C(NC(=O)c1cccc(-c2ccc3oc(-c4ccc(F)cc4)c(C(=O)NC)c3c2)c1)C(C)C (stereo not drawn) | 1000 to 10000 | 250 to 1000 | – | – | – |
| CCC(O)COc1ccc(C(=O)NCC(C)C)cc1-c1ccc2oc(-c3ccc(F)cc3)c(C(=O)NC)c2c1 (stereo not drawn) | – | – | 250 to 1000 | 250 to 1000 | – |
| CNC(=O)c1c(-c2ccc(F)cc2)oc2ccc(-c3cc(C(=O)NC4(c5coc(C)n5)CC4)ccc3C)cc12 | – | – | < 250 | < 250 | – |
| CNC(=O)c1c(-c2ccc(F)cc2)oc2ccc(-c3cccc(C(=O)NC(C)(C)CO)c3)cc12 | < 250 | < 250 | – | – | – |
| CNC(=O)c1c(-c2ccc(F)cc2)oc2ccc(-c3cc(C(=O)NC4(c5ccccn5)CC4)c(F)cc3O)cc12 | – | – | 250 to 1000 | < 250 | – |
| CNC(=O)c1c(-c2ccc(F)cc2)oc2ccc(-c3cccc(S(=O)(=O)NC(C)(C)C)c3)cc12 | > 10000 | > 4000 | – | – | – |
| CCn1nccc1NC(=O)c1cccc(-c2ccc3oc(-c4ccc(F)cc4)c(C(=O)NC)c3c2)c1 | 250 to 1000 | 250 to 1000 | – | – | – |
| CNC(=O)c1c(-c2ccc(F)cc2)oc2ccc(-c3cccc(C(=O)NC(CCO)c4ccccc4)c3)cc12 (stereo not drawn) | 250 to 1000 | < 250 | – | – | – |
| CNC(=O)c1c(-c2ccc(F)cc2)oc2ccc(-c3cccc(C(=O)N(C)S(=O)(=O)c4ccccc4)c3)cc12 | 1000 to 10000 | > 1390 | – | – | – |
| CNC(=O)c1c(-c2ccc(F)cc2)oc2ccc(-c3cc(C(=O)NC4(c5ccccc5)CC4)ccc3OC)cc12 [drawing 604] | – | – | – | – | EC50 [1, 3]: 1.78 nM; IC50 ([2]; untitled table after Table 1b): 9.95 nM |

| SMILES | EC50 ([1]; Table 1a) [nM] | IC50 ([2]; Table 1a) [nM] | EC50 ([1]; Table 1b) [nM] | IC50 ([2]; Table 1b) [nM] | also measured |
| --- | --- | --- | --- | --- | --- |
| CNC(=O)c1c(-c2ccc(F)cc2)oc2ccc(-c3cccc(C(=O)N[C@H](CO)Cc4c[nH]cn4)c3)cc12 | 1000 to 10000 | 1000 to 10000 | – | – | – |
| CNC(=O)c1c(-c2ccc(F)cc2)oc2ccc(-c3ccc(C(=O)N(C)CCC#N)cc3)cc12 | > 10000 | 1000 to 10000 | – | – | – |
| CCOC(=O)C1CCCN(C(=O)c2cccc(-c3ccc4oc(-c5ccc(F)cc5)c(C(=O)NC)c4c3)c2)C1 (stereo not drawn) | 1000 to 10000 | 1000 to 10000 | – | – | – |
| CNC(=O)c1c(-c2ccc(F)cc2)oc2ccc(-c3ccc(-c4ccc(C(N)=O)cc4)c(C(=O)NCC(C)C)c3)cc12 | – | – | > 10000 | < 250 | – |
| CCNC(=O)c1cccc(-c2ccc(-c3ccc4oc(-c5ccc(F)cc5)c(C(=O)NC)c4c3)cc2C(=O)NCC(C)C)c1 | – | – | < 250 | < 250 | – |
| CNC(=O)c1c(-c2ccc(F)cc2)oc2ccc(-c3cccc(C(=O)N(C)CCC#N)c3)cc12 [drawing 616] | – | – | – | – | EC50 [1, 3]: 1380 nM; IC50 ([2]; untitled table after Table 1b): 800 nM |
| CNC(=O)c1c(-c2ccc(F)cc2)oc2ccc(-c3cccc(C(=O)NC(C)(C)C(=O)Nc4cc(C)on4)c3)cc12 | – | – | < 250 | < 250 | – |
| CNC(=O)c1c(-c2ccc(F)cc2)oc2ccc(-c3cc(C(=O)NC4(c5ncc(C)o5)CC4)ccc3C)cc12 | – | – | – | – | EC50 ([1]; 24 h, Table 1d (class symbols)): 1 to 250 nM; IC50 ([2]; Table 1d (class symbols)): < 20 nM |
| CNC(=O)c1c(-c2ccc(F)cc2)oc2ccc(-c3cccc(C(=O)NC4(c5ccc(F)cc5)CC4)c3)cc12 | < 250 | < 250 | – | – | – |
| CNC(=O)c1c(-c2ccc(F)cc2)oc2ccc(-c3cccc(C(=O)NCC4CCOCC4)c3)cc12 | 250 to 1000 | < 250 | – | – | – |
| CNC(=O)c1c(-c2ccc(F)cc2)oc2ccc(-c3cccc(C(=O)N4CCCC(C)C4)c3)cc12 (stereo not drawn) | 1000 to 10000 | 1000 to 10000 | – | – | – |
| CNC(=O)c1c(-c2ccc(F)cc2)oc2ccc(-c3cc(C(=O)NCC(C)C)ccc3OCc3c[nH]c(C)n3)cc12 | – | – | < 250 | < 250 | – |
| CNC(=O)c1cccc(-c2ccc3oc(-c4ccc(F)cc4)c(C(=O)NC)c3c2)c1 | 250 to 1000 | 1000 to 10000 | – | – | – |
| CNC(=O)c1c(-c2ccc(F)cc2)oc2cc(N(CCO)S(C)(=O)=O)c(-c3cccc(C(=O)NC4(c5ccc(F)cc5)CC4)c3)cc12 | – | – | < 250 | < 250 | – |
| CNC(=O)c1c(-c2ccc(F)cc2)oc2ccc(-c3cccc(C(=O)N4CCCCC4C)c3)cc12 (stereo not drawn) [drawing 208] | 1000 to 10000 | 250 to 1000 | – | – | – |
| CNC(=O)c1c(-c2ccc(F)cc2)oc2ccc(-c3cccc(C(=O)NC(CO)C(=O)OC)c3)cc12 (stereo not drawn) | 1000 to 10000 | 250 to 1000 | – | – | – |
| CNC(=O)c1c(-c2ccc(F)cc2)oc2ccc(-c3cccc(C(=O)NC(C)(C)c4ccccc4)c3)cc12 | < 250 | < 250 | – | – | – |
| CNC(=O)c1c(-c2ccc(F)cc2)oc2ccc(-c3cc(C(=O)NC4(c5nnc(-c6cccc(Cl)c6)[nH]5)CC4)ccc3C)cc12 | – | – | < 250 | < 250 | – |
| CNC(=O)c1c(-c2ccc(F)cc2)oc2ccc(-c3cccc(C(=O)NC(C)(C)C(=O)O)c3)cc12 | > 10000 | 250 to 1000 | – | – | – |
| CNC(=O)c1c(-c2ccc(F)cc2)oc2ccc(-c3cc(C(=O)NCC(C)C)ccc3OCC3CCCNC3)cc12 (stereo not drawn) | – | – | < 250 | < 250 | – |
| CNC(=O)c1c(-c2ccc(F)cc2)oc2ccc(-c3cccc(C(=O)Nc4ccc(C)cn4)c3)cc12 | < 250 | < 250 | – | – | – |
| CNC(=O)c1c(-c2ccc(F)cc2)oc2ccc(-c3ccc(-c4cccc(-c5ccccc5)c4)c(C(=O)NCC(C)C)c3)cc12 | – | – | 250 to 1000 | > 10000 | – |
